The values that follow come from US9139568B2 (Merck Patent GmbH, priority 2011, dated 2015).

One experiment has as its target P70S6K (Homo sapiens (Human), UniProt P23443, T412E). In words: P70S6K Enzyme Assay. The experiment is classed as biochemical. Particulars: P70S6K T412E mutant, 24 μM ATP, mobility shift (Caliper). The procedure:
P70S6K inhibitor compounds are diluted and plated in 96 well plates. […] The reaction is incubated for 90 min at 25° C., before the addition of 10 mM EDTA to stop the reaction. The proportion of substrate and product (phosphorylated) peptide is analysed on a Caliper Life Sciences Lab Chip 3000, using a pressure of −1.4 psi, and upstream and downstream voltages of −3000 and −700 respectively. Product peaks are resolved before substrate peaks on the resulting chromatograms.

For the next experiment, the target named is AKT (Homo sapiens (Human), UniProt P31749). In words: AKT Enyzme Assay. In kind it is biochemical. Particulars: His-AKT (Full Length), 160 uM ATP, mobility shift (Caliper). The procedure:
A TTP Mosquito liquid handling instrument is used to place 125 nl of the appropriate concentration of inhibitor in 100% DMSO (for a dose response curve calculation) into each well of a 384-well plate.
The reaction is incubated for 90 min at 25 C, and then stopped by the addition of 70 μl of Stop buffer (100 mM HEPES pH 7.5, 0.015% Brij-35, 10 mM EDTA (Sigma, E7889)).
The plate is read on a Caliper LC 3000 in an Off-Chip mobility shift assay format, using the following parameters for a 12-sipper chip: screening pressure −2.3 psi, upstream voltage −500, and downstream voltage −3000. These conditions cause unphosphorylated substrate and phosphorylated product peptide to resolve as separate peaks allowing direct measurement of percentage of conversion of substrate to product. The percent conversion can be plotted against concentration of inhibitor to produce a sigmoidal dose response curve, from which an IC50 can be calculated.

Sequence of AKT (P31749 whole entry): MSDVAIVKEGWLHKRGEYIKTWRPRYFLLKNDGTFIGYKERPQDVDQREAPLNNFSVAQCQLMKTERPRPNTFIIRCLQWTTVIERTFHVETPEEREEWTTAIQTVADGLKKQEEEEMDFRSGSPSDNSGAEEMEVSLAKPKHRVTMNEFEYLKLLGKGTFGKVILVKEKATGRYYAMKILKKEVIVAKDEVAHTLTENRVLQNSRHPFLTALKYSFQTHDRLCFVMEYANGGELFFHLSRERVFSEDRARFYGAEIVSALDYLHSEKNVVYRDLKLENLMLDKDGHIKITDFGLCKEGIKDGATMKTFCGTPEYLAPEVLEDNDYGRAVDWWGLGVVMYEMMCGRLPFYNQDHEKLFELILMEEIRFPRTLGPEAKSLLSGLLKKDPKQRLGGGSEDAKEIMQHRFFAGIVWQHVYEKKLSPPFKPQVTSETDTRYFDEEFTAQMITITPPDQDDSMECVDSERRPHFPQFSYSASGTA
Sequence of P70S6K (P23443 1-421 T412E): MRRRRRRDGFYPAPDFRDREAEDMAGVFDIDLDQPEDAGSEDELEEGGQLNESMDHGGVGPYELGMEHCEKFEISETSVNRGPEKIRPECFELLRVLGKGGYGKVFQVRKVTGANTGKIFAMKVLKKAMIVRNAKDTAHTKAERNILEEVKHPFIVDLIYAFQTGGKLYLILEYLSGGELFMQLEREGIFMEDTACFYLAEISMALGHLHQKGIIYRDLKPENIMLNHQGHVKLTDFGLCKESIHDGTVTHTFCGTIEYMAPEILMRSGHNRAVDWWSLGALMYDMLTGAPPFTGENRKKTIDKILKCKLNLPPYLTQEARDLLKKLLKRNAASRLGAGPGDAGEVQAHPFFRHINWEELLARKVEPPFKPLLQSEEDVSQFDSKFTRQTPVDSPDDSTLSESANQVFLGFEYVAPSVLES

The IC50 is the concentration needed to halve the response being measured. Consider `NCC1CCCN(c2ccc(C(N)=O)c3ncncc23)C1` (racemic) [Example 56, 5-(3-(aminomethyl)piperidin-1-yl)quinazoline-8-carboxamide], for which the half-inhibitory concentration (IC50) was 56000 nM on P70S6K and over 100000 nM at AKT. As to `CN1CCC(Nc2ccc(C(N)=O)c3ncncc23)C1` (racemic) [Example 58, 5-((1-methylpyrrolidin-3-yl)amino)quinazoline-8-carboxamide], the half-maximal inhibitory concentration (IC50) was 20000 nM at P70S6K and over 100000 nM at AKT.

Regarding `CNCC1CCCN(c2ccc(C(N)=O)c3ncncc23)C1` (racemic) [Example 59, 5-(3-((methylamino)methyl)piperidin-1-yl)quinazoline-8-carboxamide], the values for the 50% inhibitory concentration (IC50) on P70S6K and on AKT were 5900 nM and 18000 nM, respectively. `NC(=O)c1ccc(N2CCC(CCc3ccccc3)C2)c2cncnc12` (racemic) [Example 64, 5-(3-phenethylpyrrolidin-1-yl)quinazoline-8-carboxamide]: the half-inhibitory concentration (IC50) at P70S6K was determined as 240 nM; at AKT it was 3100 nM. On to `NC(=O)c1ccc(N2CCC(OCc3ccccc3)C2)c2cncnc12` (racemic) [Example 65, 5-(3-(benzyloxy)pyrrolidin-1-yl)quinazoline-8-carboxamide], for which the figures for the half-inhibitory concentration (IC50) at P70S6K and on AKT were 710 nM and over 100000 nM, respectively. `NC(=O)c1ccc(N2CCC(O)(c3ccccc3)C2)c2cncnc12` (racemic) [Example 66, 5-(3-hydroxy-3-phenylpyrrolidin-1-yl)quinazoline-8-carboxamide]: the half-inhibitory concentration (IC50) is 1800 nM at P70S6K and over 100000 nM on AKT. `CN(C)C(CNc1ccc(C(N)=O)c2ncncc12)c1cccc(Cl)c1` (racemic) [Example 68, 5-((2-(3-chlorophenyl)-2-(dimethylamino)ethyl)amino)quinazoline-8-carboxamide]: the 50% inhibitory concentration (IC50) on P70S6K is 2600 nM; on AKT, over 100000 nM. For `NC(=O)c1ccc(NCC(c2ccccc2)N2CCNCC2)c2cncnc12` (racemic) [Example 69, 5-((2-phenyl-2-(piperazin-1-yl)ethyl)amino)quinazoline-8-carboxamide], the IC50 on AKT is 10000 nM. Consider `NC(=O)c1ccc(N2CCC(c3cccc(C(F)(F)F)c3)C(N)C2)c2cncnc12` (racemic) [Example 107, 5-[3-Amino-4-(3-trifluoromethyl-phenyl)-piperidin-1-yl]-quinazoline-8-carboxylic acid amide], for which the values for the IC50 on P70S6K and at AKT were 380 nM and 8100 nM, respectively. Regarding `NC(=O)c1ccc(N[C@@H]2CNCC[C@H]2c2ccc(C(F)(F)F)c(F)c2)c2cncnc12` (single isomer, unassigned) [Example 6], the 50% inhibitory concentration (IC50) at P70S6K came out at 54 nM.

As to `NC(=O)c1ccc(NC2CNC[C@@H]2c2cccc(OC(F)(F)F)c2)c2cccnc12` (single isomer, unassigned) [Example 22], at P70S6K, the IC50 turned out to be 31 nM. In the case of `NC(=O)c1ccc(N[C@@H]2CNC[C@H]2c2cccc(OC(F)(F)F)c2)c2cccnc12` (single isomer, unassigned) [Example 23], the 50% inhibitory concentration (IC50) on P70S6K stood at 690 nM. Take `NC(=O)c1ccc(N[C@H]2CNCC[C@@H]2c2ccc(F)c(Cl)c2)c2cncnc12` (single isomer, unassigned) [Example 77]: the half-maximal inhibitory concentration (IC50) at P70S6K is 50 nM; at AKT it was 850 nM. As to `NC(=O)c1ccc(N2CC[C@@](N)(C(=O)Nc3ccccc3)C2)c2cncnc12` (single isomer, unassigned) [Example 84], the IC50 at P70S6K turned out to be 2150 nM.

As for `NC(=O)c1ccc(N2CC[C@](N)(C(=O)Nc3ccccc3)C2)c2cncnc12` (single isomer, unassigned) [Example 85], the 50% inhibitory concentration (IC50) at P70S6K was determined as 11500 nM. As for `NC(=O)c1ccc(N2CC[C@H](CNC(=O)c3ccc(F)c(F)c3)C2)c2cncnc12` (single isomer, unassigned) [Example 114], the half-inhibitory concentration (IC50) on P70S6K was found to be 470 nM.

Consider `NC(=O)c1ccc(N2CC[C@@H](CNC(=O)c3ccc(F)c(F)c3)C2)c2cncnc12` (single isomer, unassigned) [Example 115], for which the IC50 on P70S6K was 450 nM.

Regarding `NC(=O)c1ccc(N2CC[C@@](N)(C(=O)Nc3ccc(F)c(C(F)(F)F)c3)C2)c2cncnc12` (single isomer, unassigned) [Example 116], the IC50 on P70S6K worked out at 520 nM.

Take `NC(=O)c1ccc(N2CC[C@](N)(C(=O)Nc3ccc(F)c(C(F)(F)F)c3)C2)c2cncnc12` (single isomer, unassigned) [Example 117]: on P70S6K, the IC50 was 380 nM. On to `NC(=O)c1ccc(NCC2(C(=O)Nc3ccccc3)CCNCC2)c2cncnc12` [Example 14, 5-(((4-(phenylcarbamoyl)piperidin-4-yl)methyl)amino)quinazoline-8-carboxamide], for which the IC50 on P70S6K is over 1000 nM. `CNC[C@@H](Nc1ccc(C(N)=O)c2ncccc12)c1cccc(F)c1` [Example 16, (S)-5-((1-(3-fluorophenyl)-2-(methylamino)ethyl)amino)quinoline-8-carboxamide]: the IC50 on P70S6K was over 1000 nM. On the same count and under the same terms, the same measure for `NC(=O)c1ccc(NC2(c3ccccc3)CNC2)c2cccnc12` [Example 19, 5-((3-phenylazetidin-3-yl)amino)quinoline-8-carboxamide]: over 1000 nM; for `NC(=O)c1ccc(NC2CNC[C@H]2c2cc(F)cc(Cl)c2)c2cccnc12` (stereo partly drawn) [Example 26, 5-(((4R)-4-(3-chloro-5-fluorophenyl)pyrrolidin-3-yl)amino)quinoline-8-carboxamide]: 350 nM; for `NC(=O)c1ccc(NC(=O)C2C[C@@H](c3ccccc3)CN2)c2cccnc12` (stereo partly drawn) [Example 28, 5-((4S)-4-phenylpyrrolidine-2-carboxamido)quinoline-8-carboxamide]: 578 nM.

On to `NC(=O)c1ccc(NC(=O)C2NC[C@@H]2c2ccccc2)c2cccnc12` (stereo partly drawn) [Example 30, 5-((3S)-3-phenylazetidine-2-carboxamido)quinoline-8-carboxamide], for which, at P70S6K, the 50% inhibitory concentration (IC50) is over 1000 nM. For `NC(=O)c1ccc(NCc2ccc(F)cc2)c2cccnc12` [Example 31, 5-(4-Fluorobenzylamino)-quinoline-8-carboxamide], the IC50 on P70S6K was determined as 875 nM. On to `NC(=O)c1ccc(NCc2ccccc2F)c2cccnc12` [Example 32, 5-(2-Fluorobenzylamino)-quinoline-8-carboxamide], for which the IC50 at P70S6K is over 1000 nM.

With `NC(=O)c1ccc(NCc2cccc(Cl)c2)c2cccnc12` [Example 34, 5-(3-Chlorobenzylamino)-quinoline-8-carboxamide], the 50% inhibitory concentration (IC50) at P70S6K came to 140 nM.

Take `NC(=O)c1ccc(NCc2ccc(F)c(F)c2)c2cccnc12` [Example 35, 5-(3,4-Difluorobenzylamino)-quinoline-8-carboxamide]: on P70S6K, the IC50 was over 1000 nM. `NC(=O)c1ccc(NCc2cc(F)c(F)c(F)c2)c2cccnc12` [Example 36, 5-(3,4,5-trifluorobenzylamino)-quinoline-8-carboxamide]: at P70S6K, the IC50 was over 1000 nM. Same read-out and setting: the same measure for `NC(=O)c1ccc(NCc2ccc(F)c(C(F)(F)F)c2)c2cccnc12` [Example 37, 5-(4-Fluoro-3-trifluoromethylbenzylamino)-quinoline-8-carboxamide]: 695 nM; for `NC(=O)c1ccc(NCc2ccc(Cl)c(C(F)(F)F)c2)c2cccnc12` [Example 38, 5-(4-Chloro-3-trifluoromethylbenzylamino)-quinoline-8-carboxamide]: over 1000 nM; for `NC(=O)c1ccc(NC(CN2CCCC2)c2ccccc2)c2cccnc12` (stereo not drawn) [Example 39]: over 1000 nM. Turning to `NC(=O)c1ccc(NCCc2ccccc2)c2cccnc12` [Example 40, 5-(Phenylethylamino)-quinoline-8-carboxamide], on P70S6K, the half-maximal inhibitory concentration (IC50) was over 1000 nM. On the same count and under the same terms, for `NC(=O)c1ccc(NCCCc2ccccc2)c2cccnc12` [Example 41, 5-(Phenylpropylamino)-quinoline-8-carboxamide] the value was over 1000 nM. As for `NC(=O)c1ccc(NCc2ccccc2)c2cccnc12` [Example 42, 5-(Benzylamino)quinoline-8-carboxamide], at P70S6K, the IC50 turned out to be 680 nM.

Consider `NC(=O)c1ccc(N2CCN(c3ccc(Cl)cc3)CC2)c2cncnc12` [Example 93, 5-[4-(4-chloro-phenyl)-piperazin-1-yl]-quinazoline-8-carboxylic acid amide], for which the concentration for half-maximal inhibition (IC50) at P70S6K came to 1000 nM. `NC(=O)c1ccc(N2CCC(CNC(=O)Cc3ccccc3)C2)c2cncnc12` (stereo not drawn) [Example 118]: the IC50 at P70S6K is 260 nM. Consider `NC(=O)c1ccc(N2CCN(c3ccccc3Cl)CC2)c2cncnc12` [Example 119, 5-[4-(2-chloro-phenyl)-piperazin-1-yl]-quinazoline-8-carboxylic acid amide], for which the IC50 at P70S6K stood at 400 nM.

Take `Cc1ccccc1N1CCN(c2ccc(C(N)=O)c3ncncc23)CC1` [Example 120, 5-[4-(2-methyl-phenyl)-piperazin-1-yl]-quinazoline-8-carboxylic acid amide]: the IC50 at P70S6K was determined as 980 nM. `NC(=O)c1ccc(N2CCN(c3ccccc3F)CC2)c2cncnc12` [Example 121, 5-[4-(2-fluorophenyl)-piperazin-1-yl]-quinazoline-8-carboxylic acid amide]: the IC50 on P70S6K turned out to be 12000 nM. As to `COc1ccccc1N1CCN(c2ccc(C(N)=O)c3ncncc23)CC1` [Example 122, 5-[4-(2-methoxyphenyl)-piperazin-1-yl]-quinazoline-8-carboxylic acid amide], on P70S6K, the half-maximal inhibitory concentration (IC50) was 11000 nM.
